From ChEMBL document CHEMBL1201862, “PubChem BioAssay data set” (2004) come the findings set out here.

Active and inactive are the calls of the source.

Type in all cases: functional
Test [1] has as its target Melanin-concentrating hormone receptor 1 (Homo sapiens, UniProt Q99705). The test is described as follows: Late-stage fluorescence-based counterscreen for antagonists of the G-protein coupled receptor 7 (GPR7): cell-based dose response assay to identify antagonists of the melanin-concentrating hormone receptor 1 (MCHR1) Set 6.
For test [2], the target named is Neuropeptides B/W receptor type 1 (Homo sapiens, UniProt P48145). In words: GPR7 antagonist potency, late-stage follow-up, cell-based, fluorescence, dose response, set 6 (AID 588583).
For test [3], the target named is T1, Apoptotic protease-activating factor 1 (Homo sapiens, UniProt O14727).
T1 sequence (O14727 whole entry): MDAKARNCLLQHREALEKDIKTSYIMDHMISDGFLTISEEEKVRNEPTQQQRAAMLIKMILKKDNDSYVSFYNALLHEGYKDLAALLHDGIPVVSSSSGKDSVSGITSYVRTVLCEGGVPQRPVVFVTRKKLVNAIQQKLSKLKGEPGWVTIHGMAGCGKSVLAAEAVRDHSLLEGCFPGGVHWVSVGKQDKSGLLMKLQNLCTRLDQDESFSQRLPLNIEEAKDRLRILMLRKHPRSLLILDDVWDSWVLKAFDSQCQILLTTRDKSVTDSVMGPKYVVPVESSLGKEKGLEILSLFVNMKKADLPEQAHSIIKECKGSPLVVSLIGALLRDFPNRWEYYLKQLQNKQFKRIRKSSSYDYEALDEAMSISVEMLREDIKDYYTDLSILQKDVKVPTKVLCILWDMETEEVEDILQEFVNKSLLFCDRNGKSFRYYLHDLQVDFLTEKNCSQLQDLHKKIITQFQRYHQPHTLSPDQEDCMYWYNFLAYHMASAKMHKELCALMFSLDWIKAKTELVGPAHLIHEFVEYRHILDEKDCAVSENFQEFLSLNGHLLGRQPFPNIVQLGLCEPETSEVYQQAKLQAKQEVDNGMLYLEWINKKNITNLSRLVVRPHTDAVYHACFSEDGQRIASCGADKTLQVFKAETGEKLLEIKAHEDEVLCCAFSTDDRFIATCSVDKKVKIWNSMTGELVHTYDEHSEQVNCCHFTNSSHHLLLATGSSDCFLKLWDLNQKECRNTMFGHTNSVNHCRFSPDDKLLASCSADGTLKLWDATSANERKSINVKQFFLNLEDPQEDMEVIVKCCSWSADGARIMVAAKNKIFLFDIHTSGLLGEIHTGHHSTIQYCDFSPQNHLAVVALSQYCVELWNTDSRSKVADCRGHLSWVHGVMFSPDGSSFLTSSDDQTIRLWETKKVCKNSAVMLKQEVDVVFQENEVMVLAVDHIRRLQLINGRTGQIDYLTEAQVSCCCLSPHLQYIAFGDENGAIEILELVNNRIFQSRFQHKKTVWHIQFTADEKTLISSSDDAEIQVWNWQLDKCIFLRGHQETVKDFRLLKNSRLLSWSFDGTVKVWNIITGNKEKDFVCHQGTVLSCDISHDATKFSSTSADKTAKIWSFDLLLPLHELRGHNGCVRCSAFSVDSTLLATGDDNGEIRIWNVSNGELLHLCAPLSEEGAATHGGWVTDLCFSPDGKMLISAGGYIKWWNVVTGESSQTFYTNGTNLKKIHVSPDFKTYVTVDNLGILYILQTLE
The test is described as follows: SAR analysis of small molecule Activators of Apaf-1 in a Fluorescent assay - set 2. The following applies: read-out: EC50_Mean.

Test [4] can be described thus: SAR analysis of small molecule activators of Apaf-1 using a LZ-Caspase-9/Caspase-3 Fluorescent Selectivity assay - Set 2. Particulars: read-out: EC50_Mean.
Test [5] addresses T2, High affinity choline transporter 1 (Homo sapiens, UniProt Q9GZV3).
T2 sequence (Q9GZV3 whole entry): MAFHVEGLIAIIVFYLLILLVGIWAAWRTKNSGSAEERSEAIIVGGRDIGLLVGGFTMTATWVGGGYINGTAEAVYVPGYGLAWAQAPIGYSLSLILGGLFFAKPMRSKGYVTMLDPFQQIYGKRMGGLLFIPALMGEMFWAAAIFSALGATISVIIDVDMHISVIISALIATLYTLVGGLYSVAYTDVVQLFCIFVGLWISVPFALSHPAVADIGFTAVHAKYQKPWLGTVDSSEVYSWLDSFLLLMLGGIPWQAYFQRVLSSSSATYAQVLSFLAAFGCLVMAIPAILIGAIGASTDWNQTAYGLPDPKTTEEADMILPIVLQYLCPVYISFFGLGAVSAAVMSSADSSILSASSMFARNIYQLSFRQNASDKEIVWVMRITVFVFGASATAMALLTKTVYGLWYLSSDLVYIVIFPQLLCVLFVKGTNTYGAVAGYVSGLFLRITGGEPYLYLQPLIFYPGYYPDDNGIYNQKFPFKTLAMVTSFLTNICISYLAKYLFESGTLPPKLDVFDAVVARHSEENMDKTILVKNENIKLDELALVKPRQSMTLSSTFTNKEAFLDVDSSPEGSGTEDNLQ
In words: inhibitors of CHT choline uptake, dose response, cell-based, 3H-choline uptake, CHT LV-AA trafficking mutant, CRC (AID 602208).

The target in test [6] is T2, High affinity choline transporter 1. The test is described as follows: CHT inhibitors, dose response, cell-based, 5-point CRC, membrane potential dye (AID 504840).
Test [7] has the same target. The test is described as follows: CHT inhibitors, dose response, cell-based, 10-point CRC, membrane potential dye (AID 588401).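 Note: membrane potential dye fluorescence of choline-evoked depolarization via CHT.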

Neuropeptides B/W receptor type 1, sequence (P48145 whole entry): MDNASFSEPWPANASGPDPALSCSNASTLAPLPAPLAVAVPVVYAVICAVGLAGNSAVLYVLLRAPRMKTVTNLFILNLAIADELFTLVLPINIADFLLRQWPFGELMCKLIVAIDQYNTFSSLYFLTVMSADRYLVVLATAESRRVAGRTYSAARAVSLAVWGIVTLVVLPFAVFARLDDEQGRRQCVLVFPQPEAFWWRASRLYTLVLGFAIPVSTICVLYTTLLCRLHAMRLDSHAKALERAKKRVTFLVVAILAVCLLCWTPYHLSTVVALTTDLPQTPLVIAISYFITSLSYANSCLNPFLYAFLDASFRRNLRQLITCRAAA
Melanin-concentrating hormone receptor 1, sequence (Q99705 whole entry): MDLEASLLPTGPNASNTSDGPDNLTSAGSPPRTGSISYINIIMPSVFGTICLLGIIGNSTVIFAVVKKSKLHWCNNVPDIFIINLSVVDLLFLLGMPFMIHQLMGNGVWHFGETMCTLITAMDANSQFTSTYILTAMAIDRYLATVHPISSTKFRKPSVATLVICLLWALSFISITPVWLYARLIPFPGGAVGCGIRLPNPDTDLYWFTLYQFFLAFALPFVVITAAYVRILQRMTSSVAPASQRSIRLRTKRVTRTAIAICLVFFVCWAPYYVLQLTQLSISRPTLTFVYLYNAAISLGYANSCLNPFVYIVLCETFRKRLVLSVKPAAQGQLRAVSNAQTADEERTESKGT

Turning to `N#CC(c1ccc(F)cc1)c1c(Br)cnn(Cc2cccc3ccccc23)c1=O` (configuration not stated), the IC50 in test [1] and in test [2] was 0.24 µM (active) each time.
Turning to `COc1ccc(C2=NOC(C(=O)O)C2)cc1` (configuration not stated), the EC50 in test [3] and in test [4] was > 100 µM (inactive) throughout.
`COc1ccc(C(=O)NCc2nc(C)c(C)s2)cc1OC1CCN(C(C)C)CC1`: the IC50 was 0.303 µM (active) in test [5], 1.32 µM (active) in test [6] and 0.761 µM (active) in test [7].
